Molecular target: T1, PI3Kγ (p101/p110γ protein) (Homo sapiens, UniProt P48736)
T1 construct: HA; made in house; host or cells: Spodoptera frugiperda (Sf9) cells, baculovirus co-infection
Experiment: PI3Kγ In Vitro Kinase Assay
Format: biochemical
Conditions: purified recombinant p101/p110γ with G protein β1/γ2 subunits; 20 μM ATP, 25 μM PIP2; 20 minutes at room temperature
Method in brief: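 Sf9-expressed, purified human p101/p110γ (2.7 nM) was activated by Gβ1/γ2 (57.7 nM) and reacted with 20 μM ATP plus [γ-32P]ATP on PIP2 (25 μM)/PE (300 μM) micelles with 10 mM MgCl2 in HEPES buffer. Reactions ran 20 min at room temperature. Filter-captured radiolabeled PIP3 was counted by scintillation.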

T1 sequence (P48736 whole entry, species assumed): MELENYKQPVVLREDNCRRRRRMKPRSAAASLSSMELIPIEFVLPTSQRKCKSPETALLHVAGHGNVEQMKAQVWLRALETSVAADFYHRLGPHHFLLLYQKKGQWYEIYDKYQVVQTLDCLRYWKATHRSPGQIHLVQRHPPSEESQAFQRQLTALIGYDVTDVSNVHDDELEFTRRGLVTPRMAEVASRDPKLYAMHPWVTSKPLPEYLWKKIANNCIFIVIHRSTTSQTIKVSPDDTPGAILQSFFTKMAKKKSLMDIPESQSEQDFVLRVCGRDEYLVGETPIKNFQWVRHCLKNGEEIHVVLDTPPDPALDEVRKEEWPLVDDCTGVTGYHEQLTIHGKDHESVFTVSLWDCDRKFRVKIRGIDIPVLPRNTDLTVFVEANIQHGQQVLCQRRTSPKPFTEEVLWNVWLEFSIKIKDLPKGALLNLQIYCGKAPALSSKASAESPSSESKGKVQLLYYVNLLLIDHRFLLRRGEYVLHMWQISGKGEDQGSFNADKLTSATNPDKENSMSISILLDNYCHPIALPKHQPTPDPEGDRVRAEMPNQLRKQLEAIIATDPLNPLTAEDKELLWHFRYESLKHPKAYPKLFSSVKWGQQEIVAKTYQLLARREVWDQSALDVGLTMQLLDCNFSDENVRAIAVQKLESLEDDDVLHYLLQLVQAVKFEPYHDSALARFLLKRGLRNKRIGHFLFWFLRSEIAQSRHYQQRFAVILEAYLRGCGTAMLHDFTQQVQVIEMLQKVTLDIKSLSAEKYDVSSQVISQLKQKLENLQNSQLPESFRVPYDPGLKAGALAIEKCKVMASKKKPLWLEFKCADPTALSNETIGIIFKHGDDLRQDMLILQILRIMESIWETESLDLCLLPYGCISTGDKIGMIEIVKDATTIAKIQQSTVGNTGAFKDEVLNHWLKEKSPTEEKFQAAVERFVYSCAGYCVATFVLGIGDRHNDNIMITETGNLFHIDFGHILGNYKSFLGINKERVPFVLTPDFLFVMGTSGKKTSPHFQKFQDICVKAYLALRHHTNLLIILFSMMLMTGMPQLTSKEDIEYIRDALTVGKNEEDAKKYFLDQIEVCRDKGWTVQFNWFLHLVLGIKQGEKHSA
T1 sequence (Q8WYR1 whole entry partner, species assumed): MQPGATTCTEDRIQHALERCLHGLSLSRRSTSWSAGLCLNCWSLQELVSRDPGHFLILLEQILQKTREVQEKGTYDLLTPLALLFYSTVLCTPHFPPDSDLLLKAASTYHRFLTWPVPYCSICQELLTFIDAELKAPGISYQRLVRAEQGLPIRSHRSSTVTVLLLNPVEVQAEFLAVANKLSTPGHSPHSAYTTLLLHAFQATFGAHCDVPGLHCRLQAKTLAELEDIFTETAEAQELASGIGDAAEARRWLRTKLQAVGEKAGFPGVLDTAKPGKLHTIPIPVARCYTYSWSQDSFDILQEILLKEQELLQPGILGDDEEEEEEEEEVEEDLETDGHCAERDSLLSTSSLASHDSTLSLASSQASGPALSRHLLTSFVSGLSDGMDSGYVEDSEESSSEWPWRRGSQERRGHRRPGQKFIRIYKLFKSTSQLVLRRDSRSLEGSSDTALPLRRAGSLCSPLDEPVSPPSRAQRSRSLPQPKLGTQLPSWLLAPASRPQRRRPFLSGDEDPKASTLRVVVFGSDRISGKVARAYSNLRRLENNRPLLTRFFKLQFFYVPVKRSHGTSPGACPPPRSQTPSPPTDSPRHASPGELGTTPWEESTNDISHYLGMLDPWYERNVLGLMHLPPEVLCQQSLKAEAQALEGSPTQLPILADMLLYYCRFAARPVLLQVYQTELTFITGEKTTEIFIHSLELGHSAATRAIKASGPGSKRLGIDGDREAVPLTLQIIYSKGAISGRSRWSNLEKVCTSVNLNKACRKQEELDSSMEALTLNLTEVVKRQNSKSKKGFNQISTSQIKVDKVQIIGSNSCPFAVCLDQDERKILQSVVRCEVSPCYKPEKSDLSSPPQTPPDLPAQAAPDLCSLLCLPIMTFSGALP

Question: `CC(C)(C)C1CC(CN2C(=O)COc3ccc(C=C4SC(=S)NC4=O)cc32)CC(C(C)(C)C)C1` (stereo not shown) [Example 250, 4-(3,5-Di-tert-butyl-cyclohexylmethyl)-6-(4-oxo-2-thioxo-thiazolidin-5-ylidenemethyl)-4H-1,4-benzoxazin-3-one] was tested. Which IC50 did it give?
Answer: 0.175 µM

Question: How did the IC50 turn out when `Cc1cc(CN2CCN(C)CC2)cc(CN2C(=O)COc3ccc(C=C4SC(=O)NC4=O)cc32)c1` [Example 251, 5-{4-[3-Methyl-5-(4-methyl-piperazin-1-ylmethyl)-benzyl]-3-oxo-3,4-dihydro-2H-1,4-benzoxazin-6-ylmethylene}-thiazolidine-2,4-dione] was run?
Answer: 0.025 µM

Question: With `CC(C)S(=O)(=O)c1cccc(CN2C(=O)COc3ccc(C=C4SC(=O)NC4=O)cc32)c1` [Example 252, 5-{3-Oxo-4-[3-(propane-2-sulfonyl)-benzyl]-3,4-dihydro-2H-1,4-benzoxazin-6-ylmethylene}-thiazolidine-2,4-dione] as the compound, how does the IC50 read?
Answer: 0.021 µM

Question: For `CC(C)S(=O)(=O)c1cccc(CN2C(=O)COc3ccc(C=C4SC(=S)NC4=O)cc32)c1` [Example 253, 6-(4-Oxo-2-thioxo-thiazolidin-5-ylidenemethyl)-4-[3-(propane-2-sulfonyl)-benzyl]-4H-1,4-benzoxazin-3-one], which IC50 is on record?
Answer: 0.016 µM

Question: `CC(C)Sc1cccc(CN2C(=O)COc3ccc(C=C4SC(=S)NC4=O)cc32)c1` [Example 254, 4-(3-Isopropylsulfanyl-benzyl)-6-(4-oxo-2-thioxo-thiazolidin-5-ylidenemethyl)-4H-1,4-benzoxazin-3-one] was tested. Which IC50 did it give?
Answer: 0.01 µM

Question: For `Cc1cc(CN2CCN(C)CC2)cc(CN2C(=O)COc3ccc(C=C4SC(=S)NC4=O)cc32)c1` [Example 255, 4-[3-Methyl-5-(4-methyl-piperazin-1-ylmethyl)-benzyl]-6-(4-oxo-2-thioxo-thiazolidin-5-ylidenemethyl)-4H-1,4-benzoxazin-3-one], which IC50 is on record?
Answer: 0.015 µM

Question: For `CN(C)S(=O)(=O)c1cccc(CN2C(=O)COc3ccc(C=C4SC(=O)NC4=O)cc32)c1` [Example 256, 3-[6-(2,4-Dioxo-thiazolidin-5-ylidenemethyl)-3-oxo-2,3-dihydro-1,4-benzoxazin-4-ylmethyl]-N,N-dimethyl-benzenesulfonamide], which IC50 is on record?
Answer: 0.02 µM

Question: Which IC50 does the source give for `O=C1NC(=S)SC1=Cc1ccc2c(c1)N(Cc1cccc(S(=O)(=O)N3CCOCC3)c1)C(=O)CO2` [Example 257, 4-[3-(Morpholine-4-sulfonyl)-benzyl]-6-(4-oxo-2-thioxo-thiazolidin-5-ylidenemethyl)-4H-1,4-benzoxazin-3-one] here?
Answer: 0.028 µM

Question: For `O=C1NC(=O)C(=Cc2ccc3c(c2)N(CC2CCCCC2)C(=O)CO3)S1` [Example 258, 5-(4-Cyclohexylmethyl-3-oxo-3,4-dihydro-2H-1,4-benzoxazin-6-ylmethylene)-thiazolidine-2,4-dione], which IC50 is on record?
Answer: 0.004 µM

Question: `O=C1NC(=S)SC1=Cc1ccc2c(c1)N(Cc1ccc(S(=O)(=O)N3CCOCC3)cc1)C(=O)CO2` [Example 259, 4-[4-(Morpholine-4-sulfonyl)-benzyl]-6-(4-oxo-2-thioxo-thiazolidin-5-ylidenemethyl)-4H-1,4-benzoxazin-3-one] was tested. Which IC50 did it give?
Answer: 0.013 µM

Question: For `COc1c(CN2C(=O)COc3ccc(C=C4SC(=S)NC4=O)cc32)cccc1C(C)C` [Example 260, 4-(3-Isopropyl-2-methoxy-benzyl)-6-(4-oxo-2-thioxo-thiazolidin-5-ylidenemethyl)-4H-1,4-benzoxazin-3-one], which IC50 is on record?
Answer: 0.004 µM

Question: For `O=C1NC(=S)OC1=Cc1ccc2c(c1)N(CC1CCCCC1)C(=O)CO2` [Example 261, 4-Cyclohexylmethyl-6-(4-oxo-2-thioxo-oxazolidin-5-ylidenemethyl)-4H-1,4-benzoxazin-3-one], which IC50 is on record?
Answer: 0.002 µM

Question: Which IC50 does the source give for `CN(C)S(=O)(=O)c1cccc(CN2C(=O)COc3ccc(C=C4SC(=S)NC4=O)cc32)c1` [Example 262, N,N-Dimethyl-3-[3-oxo-6-(4-oxo-2-thioxo-thiazolidin-5-ylidenemethyl)-2,3-dihydro-1,4-benzoxazin-4-ylmethyl]-benzenesulfonamide] here?
Answer: 0.019 µM

Question: For `CC(C)(C)c1cccc(CN2C(=O)COc3ccc(C=C4SC(=S)NC4=O)cc32)c1` [Example 263, 4-(3-tert-Butyl-benzyl)-6-(4-oxo-2-thioxo-thiazolidin-5-ylidenemethyl)-4H-1,4-benzoxazin-3-one], which IC50 is on record?
Answer: 0.018 µM

Question: For `CN(C)S(=O)(=O)c1ccc(CN2C(=O)COc3ccc(/C=C4\SC(=S)NC4=O)cc32)cc1` [Example 264, N,N-Dimethyl-4-{3-oxo-6-[4-oxo-2-thioxo-thiazolidin-(5Z)-ylidenemethyl]-2,3-dihydro-benzo[1,4]oxazin-4-ylmethyl}-benzenesulfonamide], which IC50 is on record?
Answer: 0.004 µM

Question: How did the IC50 turn out when `CS(=O)(=O)c1cccc(CN2C(=O)COc3ccc(/C=C4\SC(=O)NC4=O)cc32)c1` [Example 265, 5-[1-[4-(3-Methanesulfonyl-benzyl)-3-oxo-3,4-dihydro-2H-benzo[1,4]oxazin-6-yl]-meth-(Z)-ylidene]-thiazolidine-2,4-dione] was run?
Answer: 0.018 µM

Question: For `C/C(=C1/SC(=S)NC1=O)c1ccc2c(c1)N(Cc1ccccc1)C(=O)CO2` [Example 266, 4-Benzyl-6-{1-[4-oxo-2-thioxo-thiazolidin-(5Z)-ylidene]-ethyl}-4H-benzo[1,4]oxazin-3-one], which IC50 is on record?
Answer: 1.61 µM

Question: `O=C1NC(=S)S/C1=C\c1cnc2c(c1)N(CCc1ccccc1)C(=O)CO2` [Example 267, 7-[4-Oxo-2-thioxo-thiazolidin-(5Z)-ylidenemethyl]-1-phenethyl-1H-pyrido[2,3-b][1,4]oxazin-2-one] was tested. Which IC50 did it give?
Answer: 0.46 µM

Question: How did the IC50 turn out when `C/C(=C1/SC(=S)NC1=O)c1ccc2c(c1)NC(=O)CO2` [Example 268, 6-{1-[4-Oxo-2-thioxo-thiazolidin-(5Z)-ylidene]-ethyl}-4H-benzo[1,4]oxazin-3-one] was run?
Answer: 4.64 µM

Question: For `CS(=O)(=O)c1cccc(CN2C(=O)COc3c(F)cc(C=C4SC(=S)NC4=O)cc32)c1` [Example 269, 8-Fluoro-4-(3-methanesulfonyl-benzyl)-6-(4-oxo-2-thioxo-thiazolidin-5-ylidenemethyl)-4H-benzo[1,4]oxazin-3-one], which IC50 is on record?
Answer: 0.014 µM

Question: How did the IC50 turn out when `CS(=O)(=O)c1cccc(CN2C(=O)COc3ccc(/C=C4\SC(=S)NC4=O)cc32)c1` [Example 270, 4-(3-Methanesulfonyl-benzyl)-6-[4-oxo-2-thioxo-thiazolidin-(5Z)-ylidenemethyl]-4H-benzo[1,4]oxazin-3-one] was run?
Answer: 0.011 µM

Question: For `O=C1NC(=S)O/C1=C\c1ccc2c(c1)N(Cc1cc(C(F)(F)F)cc(C(F)(F)F)c1)C(=O)CO2` [Example 271, 4-(3,5-Bis-trifluoromethyl-benzyl)-6-[4-oxo-2-thioxo-oxazolidin-(5Z)-ylidenemethyl]-4H-benzo[1,4]oxazin-3-one], which IC50 is on record?
Answer: 0.101 µM

Question: How did the IC50 turn out when `O=C1NC(=O)/C(=C/c2ccc3c(c2)N(Cc2cc(C(F)(F)F)cc(C(F)(F)F)c2)C(=O)CO3)S1` [Example 272, 5-[1-[4-(3,5-Bis-trifluoromethyl-benzyl)-3-oxo-3,4-dihydro-2H-benzo[1,4]oxazin-6-yl]-meth-(Z)-ylidene]-thiazolidine-2,4-dione] was run?
Answer: 0.07 µM

Question: Which IC50 does the source give for `O=C1NC(=S)S/C1=C\c1cc(F)c2c(c1)N(Cc1cc(C(F)(F)F)cc(C(F)(F)F)c1)C(=O)CO2` [Example 273, 4-(3,5-Bis-trifluoromethyl-benzyl)-8-fluoro-6-[4-oxo-2-thioxo-thiazolidin-(5Z)-ylidenemethyl]-4H-benzo[1,4]oxazin-3-one] here?
Answer: 0.121 µM

Question: How did the IC50 turn out when `COCCOCOCc1cc(CN2C(=O)COc3ccc(/C=C4\SC(=S)NC4=O)cc32)cc(C(C)(C)C)c1` [Example 274, 4-[3-tert-Butyl-5-(2-methoxy-ethoxymethoxymethyl)-benzyl]-6-[4-oxo-2-thioxo-thiazolidin-(5Z)-ylidenemethyl]-4H-benzo[1,4]oxazin-3-one] was run?
Answer: 0.013 µM

Question: With `CC(C)(C)c1cc(CN2C(=O)COc3ccc(C=C4SC(=S)NC4=O)cc32)cc(C(=O)N2CCOCC2)c1` [Example 275, 4-[3-tert-Butyl-5-(morpholine-4-carbonyl)-benzyl]-6-(4-oxo-2-thioxo-thiazolidin-5-ylidenemethyl)-4H-1,4-benzoxazin-3-one; compound with ethane-1,2-diamine] as the compound, how does the IC50 read?
Answer: 0.025 µM

Question: How did the IC50 turn out when `CC(C)(C)c1cc(CN2C(=O)COc3c(F)cc(/C=C4\SC(=O)NC4=O)cc32)cc(C(C)(C)O)c1` [Example 276, 5-[1-{4-[3-tert-Butyl-5-(1-hydroxy-1-methyl-ethyl)-benzyl]-8-fluoro-3-oxo-3,4-dihydro-2H-benzo[1,4]oxazin-6-yl}-meth-(Z)-ylidene]-thiazolidine-2,4-dione] was run?
Answer: 0.007 µM

Question: How did the IC50 turn out when `CC(C)(C)c1cc(CN2CCOCC2)cc(CN2C(=O)COc3ccc(/C=C4\SC(=O)NC4=O)cc32)c1` [Example 277, 5-[1-[4-(3-tert-Butyl-5-morpholin-4-ylmethyl-benzyl)-3-oxo-3,4-dihydro-2H-benzo[1,4]oxazin-6-yl]-meth-(Z)-ylidene]-thiazolidine-2,4-dione] was run?
Answer: 0.005 µM

Question: `CC(C)(C)c1cc(CN2CCOCC2)cc(CN2C(=O)COc3ccc(/C=C4\SC(=S)NC4=O)cc32)c1` [Example 278, 4-(3-tert-Butyl-5-morpholin-4-ylmethyl-benzyl)-6-[4-oxo-2-thioxo-thiazolidin-(5Z)-ylidenemethyl]-4H-benzo[1,4]oxazin-3-one] was tested. Which IC50 did it give?
Answer: 0.007 µM

Question: `CN1CCN(C(=O)c2cc(CN3C(=O)COc4ccc(/C=C5\SC(=S)NC5=O)cc43)cc(C(C)(C)C)c2)CC1` [Example 279, 4-[3-tert-Butyl-5-(4-methyl-piperazine-1-carbonyl)-benzyl]-6-[4-oxo-2-thioxo-thiazolidin-(5Z)-ylidenemethyl]-4H-benzo[1,4]oxazin-3-one] was tested. Which IC50 did it give?
Answer: 0.016 µM

Question: With `CN1CCN(C(=O)c2ccc(CN3C(=O)COc4ccc(/C=C5\SC(=S)NC5=O)cc43)cc2)CC1` [Example 280, 4-[4-(4-Methyl-piperazine-1-carbonyl)-benzyl]-6-[4-oxo-2-thioxo-thiazolidin-(5Z)-ylidenemethyl]-4H-benzo[1,4]oxazin-3-one] as the compound, how does the IC50 read?
Answer: 0.008 µM
